According to PubChem BioAssay (NCI):
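Each compound was tested at five concentrations against cells in 96-well plates for 48 hours. GI50 is the concentration that inhibits growth by half. TGI marks complete inhibition of growth.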

Key:
Assay in all cases: DTP human tumour cell line panel, 48 h
[1] = test system: KM12 colon
[2] = test system: NCI-H226 lung
[3] = test system: SF-295 CNS
[4] = test system: SF-268 CNS
[5] = test system: RXF 393 renal
[6] = test system: MOLT-4 leukemia
[7] = test system: NCI/ADR-RES ovarian
[8] = test system: SK-OV-3 ovarian
[9] = test system: COLO 205 colon
[10] = test system: OVCAR-5 ovarian

Row | Structure (SMILES) | TGI [1] | TGI [2] | TGI [3] | TGI [4] | TGI [5] | TGI [6] | TGI [7] | TGI [8] | TGI [9] | TGI [10] | GI50 [2]
1 | COC(CN(C=O)[C@@H](c1ccc(Cl)cc1)c1cc2ccccc2o1)OC | 31.4 µM | 34 µM | 31 µM | 30.9 µM | 28.4 µM | 40 µM | 41.9 µM | 26.6 µM | 33.5 µM | 29.8 µM | 
2 | C1=CC(=[N+]2N=C(c3ccccc3)CC2c2ccccc2)C=CC1=C1SC(c2ccccc2)(c2ccccc2)c2ccccc21 (configuration not stated) | > 100 µM | > 100 µM | > 100 µM | > 100 µM | > 100 µM | > 100 µM | > 100 µM | > 100 µM |  | > 100 µM | 
3 | O=[N+]([O-])c1ccc2c(c1)nc(Cc1ccc(Cl)cc1)n2C[C@@H]1CCCN2CCCCC12 (some centres not stated) | 27.9 µM | 38.3 µM | 29.3 µM | 6.27 µM | 25.3 µM | > 44.8 µM | 30.2 µM | 43.5 µM | 29.2 µM | 35.3 µM | 
4 | O=C1/C(=C\c2ccc(F)cc2)CCOc2c1ccc1ccccc21 | 31.5 µM | > 100 µM | 70.3 µM | 74.9 µM | 49.7 µM | > 47.8 µM | 45.9 µM | > 100 µM | > 100 µM | 42.3 µM | 33.6 µM
5 | COc1cc2c(cc1OCCCCCCCCN1C(=O)c3cccc4cccc(c34)C1=O)N=C[C@@H]1CCCN1C2=O | 52 µM | 46.8 µM | 43 µM | 58.5 µM | 29.7 µM | 9.42 µM | 19.4 µM | 9.72 µM | 21.7 µM | 66.2 µM | 
6 | COC(=S)OC1CC(n2cnc3c(N)ncnc32)OC1CO[Si](C)(C)C(C)(C)C (configuration not stated) | 89.8 µM | 59.2 µM | 34.6 µM |  | 25.9 µM | > 100 µM | 82.6 µM | 60.1 µM | 39.8 µM | 65.4 µM | 
7 | CCCSc1ccc2[nH]c(N3C(=O)/C(=C/c4cc(OC)c(OC)c(OC)c4)N=C3c3ccccc3)cc2c1 | > 37.5 µM | > 37.5 µM | 37.1 µM | > 37.5 µM | 19.9 µM | > 37.5 µM | > 34.2 µM | > 25.3 µM | > 30.2 µM | > 37.5 µM | 
8 | CSCCC(NC(=O)OCc1ccccc1)P(=O)(O)c1ccccc1 (configuration not stated) |  | > 100 µM | > 100 µM |  |  | > 100 µM | > 100 µM | > 100 µM | > 100 µM | > 100 µM | 
9 | CC(=O)c1ccc2c(c1)N(CCCN1CCN(CCO)CC1)c1ccccc1C2 | 31.1 µM | 30.9 µM | 31.8 µM | 33.2 µM | 32.6 µM | 35.2 µM | 27.7 µM | 30.5 µM | 31.8 µM | 32.1 µM | 
10 | Cc1ccccc1NC(=O)CC(=O)N1N=C(N2c3ccccc3Sc3ccccc32)CC1c1ccccc1 (configuration not stated) | > 100 µM | > 100 µM | > 100 µM | > 100 µM |  | > 100 µM |  | > 100 µM | > 100 µM | > 100 µM | 
11 | O=C1CC2(CCC(O)(c3cccs3)C(C(=O)c3cccs3)C2)C(=O)c2ccccc2N1 (configuration not stated) |  | > 100 µM | > 100 µM | > 100 µM | > 100 µM | > 100 µM | > 100 µM | > 100 µM | > 100 µM | > 100 µM | 
12 | CC(=O)Oc1ccc(CO)cc1OC(C)=O | > 100 µM | > 100 µM | > 100 µM | > 100 µM | > 100 µM | > 100 µM |  | > 100 µM | > 100 µM | > 100 µM | 
13 | O=c1[nH]c(Nc2ccc(Cl)cc2)nc2nc[nH]c12 | > 100 µM | > 100 µM | > 100 µM | > 100 µM |  |  | > 100 µM | > 100 µM | > 100 µM | > 100 µM | 
14 | COc1ccc(C(=O)N(C(=O)N2CCN(c3ccccc3)CC2)S(=O)(=O)c2ccccc2)cc1 | > 100 µM | 58.8 µM | > 100 µM | > 100 µM |  | 46.5 µM | 66.7 µM | > 100 µM | 31.8 µM | 70.8 µM | 
15 | CC(C)(C)[Si](C)(C)OCC1OC(n2cnc3c(N)ncnc32)CC1OS(C)(=O)=O (configuration not stated) | > 100 µM | > 100 µM | > 100 µM |  | > 100 µM | > 100 µM | > 100 µM | > 100 µM | > 100 µM | > 100 µM | 
16 | O=S(=O)(O)c1cc(N=[N+]([O-])c2cc(S(=O)(=O)O)c3ccccc3c2)cc2ccccc12 | > 100 µM | > 100 µM | > 100 µM | > 100 µM | > 100 µM |  | > 100 µM | > 100 µM | > 100 µM | > 100 µM | 
